The values that follow come from patent US5905073A, “Use of 2-hydroxy-5-phenylazobenzoic acid derivatives as colon cancer chemopreventative and chemotherapeutic agents” (priority 1996, dated 1999).

One assay concerns HT-29 cells. The assay can be described thus: Dose response growth inhibition of HT-29 cells, Sulforhodamine B dye binding assay. Type of assay: cell-based, human. The conditions noted are these: Homo sapiens. Here is the method: (§1) For dose response studies a sensitive dye binding assay was adapted which allows simultaneous assay of multiple agents and doses in 96-well plates. Cells were plated and allowed to adhere for 24 hours prior to addition of the study drug. Cell densities were then determined 4 days later by fixation of the wells and staining with Sulforhodamine B dye.
On the technique in general: Sulforhodamine B stains cellular protein and so reports cell mass.

The subject of a further assay is LS174T cells. Nature of the assay: Dose response growth inhibition of LS174T cells, Sulforhodamine B dye binding assay. Type of assay: cell-based, human. As to conditions: Homo sapiens. Here is the method:
as §1

The test system of the next assay is LoVo cells. The assay can be described thus: Growth inhibition of LoVo colon cancer cells. As to conditions: Homo sapiens, Table IV, read-out: IC50 for inhibition of human colon cancer cell proliferation. Type of assay: cell-based. The protocol: as §1
A further assay deals with ulcerative colitis. The conditions noted are these: active and quiescent ulcerative colitis; cited from earlier work.
Assay [1] deals with rectal mucosal reactive oxygen metabolite production. The conditions noted are these: cited from earlier work.
The subject of another assay is HRT-18 cells. The assay can be described thus: Growth inhibition of HRT-18 colon cancer cells. Type of assay: cell-based. As to conditions: Homo sapiens; HRT-18, Table IV; read-out: IC50 for inhibition of human colon cancer cell proliferation. Here is the method: as §1
Another assay relates to human colon cancer cells. Nature of the assay: Colon cancer cell proliferation in vitro, comparative statements. Type of assay: cell-based. Here is the method: Cells were grown in Dulbeccos Modified Eagle medium supplemented with 10% calf serum in an atmosphere of 5% CO2 at 37° C. For growth experiments, cells were seeded into 24-well tissue culture dishes (2 cm^2 /well) at a density of 20,000 cells/well and allowed to attach for 12 hours. The growth medium was then changed and replaced with fresh media containing the test drugs.
The test drugs were dissolved in tissue culture media at the desired concentration and added to individual wells. To determine the number of cells per well, media was removed and the cells washed with phosphate buffered saline solution. The cells were then incubated 15 minutes with trypsin-EDTA solution until detached. The detached cells were then removed from the wells and counted using a Coulter Counter (Model ZBI).
The cell numbers shown in Table I are the average of triplicate culture wells.
For dose response studies a sensitive dye binding assay was adapted which allows simultaneous assay of multiple agents and doses in 96-well plates. Cells were plated and allowed to adhere for 24 hours prior to addition of the study drug. Cell densities were then determined 4 days later by fixation of the wells and staining with Sulforhodamine B dye. Optical density of the stained cultures was then determined using a 96-well plate reader at 495 nm (Skehan et al. (1990) J. Natl. Cancer Inst. 82:1107-1112).
Two such oxidation products, gentisic acid (Dull et al. (1987) Biochem. Pharmacol. 36:2467-2472) and 5-nitro-salicylate (Laffafian et al. (1991) Biochem. Pharmacol. 42:1869-1874) have been elucidated.

“Also recorded” adds a separate entry of the source. Like-named read-outs stand apart in the source and are kept apart here.

Consider `O=C(O)CCNC(=O)c1ccc(/N=N/c2ccc(O)c(C(=O)O)c2)cc1` [Balsalazide], for which the IC50 stood at 5.71 mM with HT-29 cells (HT-29, Table IV, read-out: IC50 for inhibition of human colon cancer cell proliferation); 5.7 mM in the assay on HT-29 cells (HT-29, text (FIG. 5), read-out: IC50); 5.29 mM in the assay on LS174T cells (Table IV, read-out: IC50 for inhibition of human colon cancer cell proliferation); 5.2 mM with LS174T cells (text (FIG. 5), read-out: IC50); 5 mM in the assay on LoVo cells; 3.88 mM in the assay with HRT-18 cells. In the assay on ulcerative colitis, the “anti-inflammatory activity in ulcerative colitis patients” value is reported as “possesses anti-inflammatory activity”. In addition, the “reduction of rectal mucosal reactive oxygen metabolite production” value in assay [1] (rectal biopsies, ulcerative colitis patients) is “over 90%”. Further, the “effectiveness relative to taurine, ascorbate or N-acetyl cysteine” value in assay [1] (similar concentrations) is recorded as “more effective”. Further, the “inhibition of colon cancer cell growth (in words)” value in the assay with human colon cancer cells is recorded as “potently inhibitory; also recorded: greater inhibitory response at lower concentrations than did 5-ASA”. Also, in the assay with human colon cancer cells (LS174T vs HT-29), the “relative sensitivity of LS174T and HT-29 cells” value is “identical between both cell types”.
